Data: patent publication US20100031388A1, “MUTANT HISTIDINE KINASE THAT CONFERS SPONTANEOUS NODULATION IN PLANTS” (Plant Biosciences Ltd., priority 2006, published 2010)

Legend:
[1] = system: Lrr5, Lhk1 and Nin transcripts; assay: Quantitative RT-PCR of Lrr5, Lhk1 and Nin transcripts in roots and root explants in response to cytokinin; format: in vivo, Lotus japonicus
Protocol: Steady state levels of Lhk1 and ARR transcripts were determined in roots and other plant organs by quantitative RT-PCR analysis according to the following protocol.
Wild type and snf2 seeds were surface sterilised and germinated as described previously (Handberg, and Stougaard, (1992) Plant J. 2: 487). Plants were grown with 16 h light/8 h dark period at 21° C. Total RNA was isolated from roots, nodules, leaves, flowers and pods of inoculated wild type L. japonicus. mRNA was extracted from roots of wild type and snf2 plants grown for 2 weeks on ¼ B&D (Broughton and Dilworth, (1971) Biochem. J. 125: 1075) supplemented with 0.5 μM potassium nitrate. Roots were treated with 10 μM BAP for three time points, 30 minutes, 3 hours and 8 hours. Untreated roots were taken as control. mRNA was also extracted from root segments of wild type and snf2 plants grown for 10 days on hormone-free B5 salt medium and B5 salt medium supplemented with 0.5 μg/ml of BAP. Dynabeads mRNA direct kit (Invitrogen) was used for the extraction of mRNA.
First strand cDNA was prepared using reverse transcriptase (Fermentas). Quantitative PCR was performed on a Light Cycler (Roche Molecular Biochemicals) using Fast Start DNA master SYBR green kit (Roche) to amplify the target transcripts from 5 μl diluted cDNA. Four house keeping genes (Czechowski et al., (2005) Genome analysis 139: 5) were used to determine the relative expression of target genes (see below). For each treatment, normalized relative ratios of the target genes and the four independent house keeping genes have been calculated using the Relative Quantification Software (Quant) from Roche. The geometric mean (Vandesompele et al., (2002)Genome Biology 3:1) of the relative expression ratios for the three biological and technical replicates and the corresponding 95% intervals of confidence have been calculated as described previously (Radutoiu et al., (2003) Nature 425: 585).

wild type Lotus roots = assay: Spontaneous nodulation of wild type hairy roots transformed via A. rhizogenes, scored without rhizobia; format: in vivo, Lotus japonicus; details: scored in absence of M. loti
Protocol: Transgenic expression of the wild type or mutant snf2 allele in wild type Lotus roots was performed in order to confirm in planta the genetic basis for the spontaneous nodulation phenotype. A genomic fragment of 12.7 kb from the BAC clone 1 K18 was used to clone out the wild type Lhk1 gene including a 2.2 kb promoter region, and its Snf2 allele comprising the C→T transition, which were then sub-cloned into the pIV10 plasmid. The constructs were integrated into A. rhizogenes strain AR12 by tri-parental mating. Transformation was performed as described by Stougaard (1995) Method Mol Biology 49: Plant Gene Transfer and Expression Protocols, p. 49-63, and included transformation with an empty vector control.

cps::lacZ reporter = assay: Two-component phosphorelay assay in E. coli SRC122 (cps::lacZ), receptor activity read out as β-galactosidase; format: cell-based; details: LB plates with/without t-zeatin, kinetin, BAP (200 μM) or thidiazuron (50 μM), 40 hours, 25° C.
Source text: (§1) In this assay cytokinin induction can be determined without interference from endogenous cytokinin levels, cytokinin penetration and interfering metabolic pathways present in plants. The phosphorelay exploited in this assay is normally involved in regulating bacterial extracellular polysaccharide synthesis through activation of the cps operon in response to a sensor (RcsC), which has a domain structure similar to plant cytokinin receptors. Functional expression of a cytokinin receptor in an E. coli strain deleted of RcsC sensor allows cytokinin perception to be read out as β-galactosidase activity from the expression of a cps::lacZ fusion.
(§2) Accordingly the Lhk1 cDNAs, corresponding to wild type and snf2 allele were cloned into the pIN-III expression vector and transformed into the sensor-negative SRC122 (ΔRcsC) strain harbouring the cps::lacZ gene. The transformants were grown overnight in liquid […] and then spotted on LB plates, supplemented with and without t-zeatin, kinetin, BAP (200 μM) each and thidiazuron (50 μM). The LB media was further supplemented with X-Gal (5-bromo-4-chloro-3-indolyl-β-D-[…]), a β-galactosidase substrate. After 40 hours incubation at room temperature (25° C.), the plates were photographed. E coli strain (SRC122) was taken as a negative control.

[2] = system: mutant LHK1 cytokinin receptor (snf2 allele); details: liquid culture, snf2 allele expressing cells (FIG. 5B)
Source text: as §1, §2

[3] = system: wild type LHK1 cytokinin receptor; details: liquid culture, LHK1 expressing cells (FIG. 5B)
Source text: as §1, §2

[4] = system: L. japonicus wild type and snf2 plants; details: increasing concentrations of BAP, 3 weeks (FIG. 8)
Protocol: Accordingly, wild type and snf2 plants were grown on ½ B5 salt with and without increasing concentrations of BAP for 3 weeks. Shoot and root length of at least 60 plants for each treatment was measured.

c1ccc(CNc2ncnc3nc[nH]c23)cc1 [BAP, 6-benzylaminopurine]
increase of Lrr5 transcript level ([1]; snf2 and wild-type root explants on B5 medium, 0.5 μg/ml BAP, 10 days (FIG. 7B)): two to three-fold

Wild type Lhk1 allele: Wild type Lotus histidine kinase gene Lhk1 (SEQ ID NO:1, 2) encoding LHK1 cytokinin receptor protein (SEQ ID NO:3)
nodule number/nodulated plant (wild type Lotus roots): 0 | nodule number/plant (wild type Lotus roots): 0 | % spontaneous nodulation (wild type Lotus roots; (nodulated/total plants)): 0 (0/41) % | β-galactosidase activity, plate assay (X-Gal) (cps::lacZ reporter): induced β-galactosidase activity in a cytokinin-dependent fashion

C/C(=C\CNc1ncnc2nc[nH]c12)CO [Cytokinin, Trans-zeatin]
Lrr5 transcript level ([1]; direct treatment of intact snf2 and wild-type roots, 10 μM BAP, 30 minutes, 3 hours, 8 hours (FIG. 7C)): increased | Lhk1 gene transcripts ([1]; intact wild type and snf2 roots (FIG. 7D)): increase rapidly | Nin gene transcription ([1]; intact wild type and snf2 roots (FIG. 7E)): transcriptionally upregulated | increase of β-galactosidase activity on cytokinin addition [2]: only a marginal increase | induction of β-galactosidase activity on cytokinin addition [3]: two fold induction | sensitivity of shoot and root growth of snf2 plants compared to wild type [4]: hypersensitive
